According to ChEMBL document CHEMBL5241112, “Insights into the recent progress in the medicinal chemistry of pyranopyrimidine analogs” (RSC Med Chem, 2022):
Converted amounts (≈) assume the structure as drawn.

What was measured:
Clostridium tetani = experiment: Antibacterial activity against Clostridium tetani MTCC 449 assessed as bacterial growth inhibition by broth microdilution method; type: functional
Escherichia coli [1] = experiment: Antibacterial activity against Escherichia coli MTCC 443 assessed as bacterial growth inhibition by broth microdilution method; type: functional
Salmonella typhimurium = experiment: Antibacterial activity against Salmonella typhimurium MTCC 98 assessed as bacterial growth inhibition by broth microdilution method; type: functional, Salmonella enterica subsp. enterica serovar Typhimurium; details: Salmonella enterica
Aspergillus fumigatus [2] = experiment: Antifungal activity against Aspergillus fumigatus MTCC 227 assessed as fungal growth inhibition by broth microdilution method; type: functional
[3] = test system: Mycobacterium tuberculosis; experiment: Antitubercular activity against Mycobacterium tuberculosis H37Rv assessed as bacterial growth inhibition at 250 ug/ml; type: functional
[4] = test system: Mycobacterium tuberculosis; experiment: Antitubercular activity against Mycobacterium tuberculosis H37Rv assessed as bacterial growth inhibition at 100 ug/ml; type: functional
Bacillus subtilis [5] = experiment: Antibacterial activity against Bacillus subtilis ATCC 6633 assessed as diameter of inhibition zone incubated for 24 hrs by disc diffusion assay; type: functional
Staphylococcus aureus [6] = experiment: Antibacterial activity against Staphylococcus aureus ATCC 25923 assessed as diameter of inhibition zone incubated for 24 hrs by disc diffusion assay; type: functional
Bacillus subtilis [7] = experiment: Antibacterial activity against Bacillus subtilis ATCC 6633 assessed as inhibition of bacterial growth incubated for 24 hrs by broth macrodilution method; type: functional
Staphylococcus aureus [8] = experiment: Antibacterial activity against Staphylococcus aureus ATCC 25923 assessed as inhibition of bacterial growth incubated for 24 hrs by broth macrodilution method; type: functional
HepG2 = experiment: Anticancer activity against human HepG2 cells assessed as reduction in cell viability; type: functional, cell-based
MCF7 = experiment: Anticancer activity against human MCF7 cells assessed as reduction in cell viability; type: functional, cell-based
HCT-116 = experiment: cells; details: Homo sapiens
Micrococcus luteus = experiment: Antibacterial activity against Micrococcus luteus MTCC 2470 assessed as bacterial growth inhibition; type: functional
Bacillus subtilis [9] = experiment: Antibacterial activity against Bacillus subtilis MTCC 121 assessed as bacterial growth inhibition; type: functional
Staphylococcus aureus [10] = experiment: Antibacterial activity against Staphylococcus aureus MLS-16 MTCC 2940 assessed as bacterial growth inhibition; type: functional
Escherichia coli [11] = experiment: Antibacterial activity against Escherichia coli MTCC 739 assessed as bacterial growth inhibition; type: functional
Raoultella planticola = experiment: Antibacterial activity against Raoultella planticola MTCC 530 assessed as bacterial growth inhibition; type: functional; details: Klebsiella planticola
Pseudomonas aeruginosa = experiment: Antibacterial activity against Pseudomonas aeruginosa MTCC 2453 assessed as bacterial growth inhibition; type: functional
Staphylococcus aureus [12] = experiment: Antibacterial activity against Staphylococcus aureus MLS-16 MTCC 2940 assessed as minimum bactericidal concentration; type: functional
Staphylococcus aureus [13] = experiment: Antibacterial activity against Staphylococcus aureus MTCC 96 assessed as minimum bactericidal concentration; type: functional
Bacillus subtilis [14] = experiment: Antibacterial activity against Bacillus subtilis MTCC 121 assessed as minimum bactericidal concentration; type: functional
DNA topoisomerase II = DNA topoisomerase II (Homo sapiens, UniProt P11388+Q02880); experiment: Inhibition of DNA topoisomerase 2 (unknown origin); type: protein assay
DNA = experiment: Binding affinity to DNA (unknown origin) assessed as DNA intercalation; type: nucleic-acid assay
Streptococcus pneumoniae [15] = experiment: Antibacterial activity against Streptococcus pneumoniae ATCC BAA-255/R6 assessed as diameter of inhibition zone at 50 mg/ml incubated for 24 hrs by paper disk diffusion method; type: functional; details: read-out: DIZ
Staphylococcus aureus [16] = experiment: Antibacterial activity against Staphylococcus aureus ATCC6538-P assessed as diameter of inhibition zone at 50 mg/ml incubated for 24 hrs by paper disk diffusion method; type: functional; details: read-out: DIZ
Aspergillus fumigatus [17] = experiment: microbe, parasite or virus in culture; type: functional; details: ATCC204305, dose 50 mg/ml, time 24 hrs, read-out: DIZ
Streptococcus pneumoniae [18] = experiment: Antibacterial activity against Streptococcus pneumoniae ATCC BAA-255/R6 assessed as inhibition of bacterial growth incubated for 24 hrs by disk diffusion method; type: functional
[19] = Inhibition of Escherichia coli topoisomerase 4 assessed as reduction in decatenation
Klebsiella pneumoniae = experiment: Antibacterial activity against Klebsiella pneumoniae MGH 78578 assessed as diameter of inhibition zone at 50 mg/ml incubated for 24 hrs by paper disk diffusion method; type: functional; details: read-out: DIZ
Penicillium italicum = experiment: microbe, parasite or virus in culture; type: functional; details: CECT 2294, dose 50 mg/ml, time 24 hrs, read-out: DIZ
[20] = test system: Human immunodeficiency virus 1; experiment: Antiviral activity against HIV1 IIIB infected in human MT4 cells assessed as reduction in virus-induced cytopathic effect by MTT assay; type: functional, organism-based; details: Human immunodeficiency virus 1, IIIB
[21] = test system: Human immunodeficiency virus 2; experiment: Antiviral activity against HIV2 ROD infected in human MT4 cells assessed as reduction in virus-induced cytopathic effect by MTT assay; type: functional, organism-based; details: Human immunodeficiency virus 2, ROD
[22] = Cytotoxicity against human MT4 cells assessed as reduction in cell viability by MTT assay; type: toxicity, cell-based
[23] = Selectivity index, ratio of CC50 for cytotoxicity against human MT4 cells to EC50 for antiviral activity against HIV1 IIIB infected in human MT4 cells; type: toxicity, cell-based; details: read-out: Selectivity Index
[24] = Selectivity index, ratio of CC50 for cytotoxicity against human MT4 cells to EC50 for antiviral activity against HIV2 ROD infected in human MT4 cells; type: toxicity, cell-based; details: read-out: Selectivity Index

`CCOC(=O)C1=C(N)Oc2c(c(=O)n(C)c(=O)n2C)C1c1c(C)nn(-c2ccccc2)c1-n1ccnc1` (configuration not stated) showed an MIC (Clostridium tetani) of 100 µg/mL (≈ 199 µM), an MIC (Escherichia coli [1]) of 62.5 µg/mL (≈ 124 µM) and an MIC (Salmonella typhimurium) of 100 µg/mL (≈ 199 µM). The MIC (Aspergillus fumigatus [2]) was 200 µg/mL (≈ 397 µM), the inhibition at 250 µg/mL [3] was 84% and the inhibition at 100 µg/mL [4] was 30%.

For `COc1ccc(C2c3c([nH]c(=O)[nH]c3=O)Oc3ncn(C(N)=O)c(=N)c32)cc1` (configuration not stated), the “diameter of the inhibition zone (DIZ)” value (Bacillus subtilis [5]) was 26 mm, the “diameter of the inhibition zone (DIZ)” value (Staphylococcus aureus [6]) was 21.7 mm and the MIC (Bacillus subtilis [7]) was 0.097 µg/mL (≈ 0.254 µM). For the same compound, the MIC (Staphylococcus aureus [8]) was 0.781 µg/mL (≈ 2.04 µM), the IC50 (HepG2) was 2090 nM and the IC50 (MCF7) was 2430 nM. For the same compound, the IC50 (HCT-116) was 2610 nM.

With `Cc1ccc(C2c3c(Nc4cccc([N+](=O)[O-])c4)ncnc3Oc3c2c(=O)oc2ccccc32)cc1` (configuration not stated) the MIC (Micrococcus luteus) was 15.6 µg/mL (≈ 32.6 µM), the MIC (Bacillus subtilis [9]) was 31.2 µg/mL (≈ 65.2 µM) and the MIC (Staphylococcus aureus [10]) was 15.6 µg/mL (≈ 32.6 µM). It also gave an MIC (Escherichia coli [11]) of 15.6 µg/mL (≈ 32.6 µM), an MIC (Raoultella planticola) of 15.6 µg/mL (≈ 32.6 µM) and an MIC (Pseudomonas aeruginosa) of 15.6 µg/mL (≈ 32.6 µM). For the same compound, the MBC (Staphylococcus aureus [12]) was 15.6 µg/mL (≈ 32.6 µM), the MBC (Staphylococcus aureus [13]) was 15.6 µg/mL (≈ 32.6 µM) and the MBC (Bacillus subtilis [14]) was 15.6 µg/mL (≈ 32.6 µM).

For `CCC(C)n1cnc2c(c1=N)C(c1ccc(OC)cc1)c1c([nH]c(=O)[nH]c1=O)O2` (configuration not stated), the “diameter of the inhibition zone (DIZ)” value (Bacillus subtilis [5]) was 26 mm, the “diameter of the inhibition zone (DIZ)” value (Staphylococcus aureus [6]) was 20.8 mm and the MIC (Bacillus subtilis [7]) was 0.097 µg/mL (≈ 0.245 µM). The MIC (Staphylococcus aureus [8]) was 1.56 µg/mL (≈ 3.95 µM), the IC50 (HepG2) was 2090 nM and the IC50 (MCF7) was 2430 nM. For the same compound, the IC50 (DNA topoisomerase II) was 752 nM, the IC50 (DNA) was 27000 nM and the IC50 (HCT-116) was 2610 nM.

`Nc1nc(=O)[nH]c2c1C(c1ccc(Cl)cc1)C=C(c1cc3ccccc3oc1=O)O2` (configuration not stated) showed a zone of inhibition at 50000 µg/mL (Streptococcus pneumoniae [15]) of 10 mm, a zone of inhibition at 50000 µg/mL (Staphylococcus aureus [16]) of 18 mm and a zone of inhibition at 50000 µg/mL (Aspergillus fumigatus [17]) of 10 mm. It also gave an MIC (Streptococcus pneumoniae [18]) of 7.8 µg/mL (≈ 18.6 µM) and an IC50 [19] of 237 nM.

Work on `Cc1nc2c(c(=O)[nH]1)C(c1ccc(Cl)cc1)C=C(c1cc3ccccc3oc1=O)O2` (configuration not stated) yielded a zone of inhibition at 50000 µg/mL (Streptococcus pneumoniae [15]) of 14 mm, a zone of inhibition at 50000 µg/mL (Staphylococcus aureus [16]) of 10 mm and a zone of inhibition at 50000 µg/mL (Klebsiella pneumoniae) of 20 mm. The zone of inhibition at 50000 µg/mL (Aspergillus fumigatus [17]) was 10 mm.

`Clc1ccc(COC(Cn2ccnc2)c2ccc(Cl)cc2Cl)c(Cl)c1` (configuration not stated) [MICONAZOLE NITRATE] showed a zone of inhibition at 50000 µg/mL (Penicillium italicum) of 17 mm and a zone of inhibition at 50000 µg/mL (Aspergillus fumigatus [17]) of 19 mm.

`N=c1c2c(ncn1N)Oc1c(c(=O)oc3ccccc13)C2c1cccc2ccccc12` (configuration not stated) gave an EC50 [20] of 4.84 µg/mL (≈ 11.9 µM), an EC50 [21] of 4.84 µg/mL (≈ 11.9 µM) and a CC50 [22] of 4.84 µg/mL (≈ 11.9 µM). The selectivity ratio [23] was < 1 and the selectivity ratio [24] was < 1.
